# According to EP0238060B1, “Cephalosporin derivatives, processes for their preparation and antibacterial agents” (Banyu Pharmaceutical Co., Ltd., priority 1986, dated 1987):
# Where two headings read alike, the source gives them in different places.
# Columns and labels:
# Assay in all cases: In vitro antibacterial activity, agar plate dilution method (MIC)
# P.vulgaris No. 33 = assay type: cell-based; settings: Proteus vulgaris, read-out: Minimum Inhibitory Concentration (MIC: µg/ml)
# Description: (§1) The in vitro antibacterial activities of the compounds of the present invention against various microorganisms, were measured by the following agar plate dilution method. One platinum loopfull of each test microorganism incubated overnight in Mueller Hinton broth, was inoculated to Mueller Hinton agar (inoculum size: l0⁶ CFU/ml). Such culture media containing various antibiotics in various concentrations were prepared. After incubation at 37°C for l6 hours, the minimum inhibitory concentrations (MIC: µg/ml) were measured. As comparative compounds, Cefotaxime, Ceftazidime and the compounds of Reference Examples l to 4 were employed.
# A.calcoaceticus No. 4 = assay type: cell-based; settings: Acinetobacter calcoaceticus, read-out: Minimum Inhibitory Concentration (MIC: µg/ml)
# Description: as §1
# P.vulgaris HX-19 = assay type: cell-based; settings: Proteus vulgaris, read-out: Minimum Inhibitory Concentration (MIC: µg/ml)
# Description: as §1
# Ps.aeruginosa AKR17 = assay type: cell-based; settings: Pseudomonas aeruginosa; Ps.aeruginosa AKR17; Mueller Hinton agar, inoculum 10⁶ CFU/ml, 37°C, 16 hours; read-out: Minimum Inhibitory Concentration (MIC: µg/ml)
# Description: as §1
# M.luteus ATCC9341 = assay type: cell-based; settings: Micrococcus luteus, read-out: Minimum Inhibitory Concentration (MIC: µg/ml)
# Description: as §1
# K.pneumoniae No. 42 = assay type: cell-based; settings: Klebsiella pneumoniae, read-out: Minimum Inhibitory Concentration (MIC: µg/ml)
# Description: as §1
# S.marcescens IAM 1184 = assay type: cell-based; settings: Serratia marcescens, read-out: Minimum Inhibitory Concentration (MIC: µg/ml)
# Description: as §1
# E.coli CSH2 (RK1) = assay type: cell-based; settings: Escherichia coli, 16 h, read-out: Minimum Inhibitory Concentration (MIC: µg/ml)
# Description: as §1
# E.cloacae Nek 39 = assay type: cell-based; settings: Enterobacter cloacae, read-out: Minimum Inhibitory Concentration (MIC: µg/ml)
# Description: as §1
# C.freundii GN346 = assay type: cell-based; settings: Citrobacter freundii, read-out: Minimum Inhibitory Concentration (MIC: µg/ml)
# Description: as §1
# S.aureus JS1 = assay type: cell-based; settings: Staphylococcus aureus, read-out: Minimum Inhibitory Concentration (MIC: µg/ml)
# Description: as §1
# S.marcescens No. 16-2 = assay type: cell-based; settings: Serratia marcescens, read-out: Minimum Inhibitory Concentration (MIC: µg/ml)
# Description: as §1
# E.coli NIHJ JC2 = assay type: cell-based; settings: Escherichia coli, read-out: Minimum Inhibitory Concentration (MIC: µg/ml)
# Description: as §1
# K.oxytoca GN10650 = assay type: cell-based; settings: Klebsiella oxytoca, read-out: Minimum Inhibitory Concentration (MIC: µg/ml)
# Description: as §1
# S.aureus 209P NIHJ-JC1 = assay type: cell-based; settings: Staphylococcus aureus, read-out: Minimum Inhibitory Concentration (MIC: µg/ml)
# Description: as §1
# Ps.aeruginosa AK 109 = assay type: cell-based; settings: Pseudomonas aeruginosa, read-out: Minimum Inhibitory Concentration (MIC: µg/ml)
# Description: as §1
# S.epidermidis IAM12012 = assay type: cell-based; settings: Staphylococcus epidermidis, read-out: Minimum Inhibitory Concentration (MIC: µg/ml)
# Description: as §1
# M.morganii GN5407 = assay type: cell-based; settings: Morganella morganii, read-out: Minimum Inhibitory Concentration (MIC: µg/ml)
# Description: as §1
# K.pneumoniae PCI-602 = assay type: cell-based; settings: Klebsiella pneumoniae, read-out: Minimum Inhibitory Concentration (MIC: µg/ml)
# Description: as §1
# C.freundii GN346/16 = assay type: cell-based; settings: Citrobacter freundii, read-out: Minimum Inhibitory Concentration (MIC: µg/ml)
# Description: as §1
# E.coli CSH(RE45) = assay type: cell-based; settings: Escherichia coli, 16 h, read-out: Minimum Inhibitory Concentration (MIC: µg/ml)
# Description: as §1
# S.aureus BB5703 = assay type: cell-based; settings: Staphylococcus aureus, read-out: Minimum Inhibitory Concentration (MIC: µg/ml)
# Description: as §1
# E.cloacae 963 = assay type: cell-based; settings: read-out: Minimum Inhibitory Concentration (MIC: µg/ml)
# Description: as §1
# Ps.aeruginosa IFO3445 = assay type: cell-based; settings: Pseudomonas aeruginosa; Ps.aeruginosa IFO3445; Mueller Hinton agar, inoculum 10⁶ CFU/ml, 37°C, 16 hours; read-out: Minimum Inhibitory Concentration (MIC: µg/ml)
# Description: as §1
# E.coli GN5482 = assay type: cell-based; settings: Escherichia coli, read-out: Minimum Inhibitory Concentration (MIC: µg/ml)
# Description: as §1
# Ps.maltophilia GN 12873 = assay type: cell-based, Pseudomonas maltophilia; settings: Stenotrophomonas maltophilia, read-out: Minimum Inhibitory Concentration (MIC: µg/ml)
# Description: as §1
# Ps.cepacia 23 = assay type: cell-based, Pseudomonas cepacia; settings: read-out: Minimum Inhibitory Concentration (MIC: µg/ml)
# Description: as §1
# [1] = P.vulgaris No. 33 (β-Lactamase-producing strain), Mueller Hinton agar, inoculum 10⁶ CFU/ml, 37°C, 16 hours
# [2] = A.calcoaceticus No. 4, Mueller Hinton agar, inoculum 10⁶ CFU/ml, 37°C, 16 hours
# [3] = HX19, P.vulgaris HX-19, Mueller Hinton agar, inoculum 10⁶ CFU/ml, 37°C, 16 hours
# [4] = M.luteus ATCC9341, Mueller Hinton agar, inoculum 10⁶ CFU/ml, 37°C, 16 hours
# [5] = K.pneumoniae No. 42 (β-Lactamase-producing strain), Mueller Hinton agar, inoculum 10⁶ CFU/ml, 37°C, 16 hours
# [6] = IAM1184, S.marcescens IAM 1184, Mueller Hinton agar, inoculum 10⁶ CFU/ml, 37°C, 16 hours
# [7] = NEK39, E.cloacae Nek 39 (β-Lactamase-producing strain), Mueller Hinton agar, inoculum 10⁶ CFU/ml, 37°C, 16 hours
# [8] = C.freundii GN346 (β-Lactamase-producing strain), Mueller Hinton agar, inoculum 10⁶ CFU/ml, 37°C, 16 hours
# [9] = S.aureus JS1 (β-Lactamase-producing strain), Mueller Hinton agar, inoculum 10⁶ CFU/ml, 37°C, 16 hours
# [10] = NO.162, S.marcescens No. 16-2 (β-Lactamase-producing strain), Mueller Hinton agar, inoculum 10⁶ CFU/ml, 37°C, 16 hours
# [11] = NIHJJC2, E.coli NIHJ JC2, Mueller Hinton agar, inoculum 10⁶ CFU/ml, 37°C, 16 hours
# [12] = K.oxytoca GN10650 (β-Lactamase-producing strain), Mueller Hinton agar, inoculum 10⁶ CFU/ml, 37°C, 16 hours
# [13] = S.aureus 209P NIHJ-JC1, Mueller Hinton agar, inoculum 10⁶ CFU/ml, 37°C, 16 hours
# [14] = AK109, Ps.aeruginosa AK 109, Mueller Hinton agar, inoculum 10⁶ CFU/ml, 37°C, 16 hours
# [15] = S.epidermidis IAM12012, Mueller Hinton agar, inoculum 10⁶ CFU/ml, 37°C, 16 hours
# [16] = M.morganii GN5407 (β-Lactamase-producing strain), Mueller Hinton agar, inoculum 10⁶ CFU/ml, 37°C, 16 hours
# [17] = PCI602, K.pneumoniae PCI-602, Mueller Hinton agar, inoculum 10⁶ CFU/ml, 37°C, 16 hours
# [18] = C.freundii GN346/16, Mueller Hinton agar, inoculum 10⁶ CFU/ml, 37°C, 16 hours
# [19] = S.aureus BB5703, Mueller Hinton agar, inoculum 10⁶ CFU/ml, 37°C, 16 hours
# [20] = Enterobacter cloacae, E.cloacae 963, Mueller Hinton agar, inoculum 10⁶ CFU/ml, 37°C, 16 hours
# [21] = E.coli GN5482 (β-Lactamase-producing strain), Mueller Hinton agar, inoculum 10⁶ CFU/ml, 37°C, 16 hours
# [22] = GN12873, Ps.maltophilia GN 12873 (β-Lactamase-producing strain), Mueller Hinton agar, inoculum 10⁶ CFU/ml, 37°C, 16 hours
# [23] = Burkholderia cepacia, Ps.cepacia 23, Mueller Hinton agar, inoculum 10⁶ CFU/ml, 37°C, 16 hours
smiles,measurement,setting,value
"CO/N=C(\C(=O)N[C@@H]1C(=O)N2C(C(=O)O)=C(COC(C)=O)CS[C@H]12)c1csc(N)n1 [Cefotaxime, reference compound]",MIC,P.vulgaris No. 33; [1],0.025 µg/mL
same,MIC,A.calcoaceticus No. 4; [2],25 µg/mL
same,MIC,P.vulgaris HX-19; [3],< 0.006 µg/mL
same,MIC,Ps.aeruginosa AKR17,> 100 µg/mL
same,MIC,M.luteus ATCC9341; [4],0.05 µg/mL
same,MIC,K.pneumoniae No. 42; [5],0.05 µg/mL
same,MIC,S.marcescens IAM 1184; [6],0.05 µg/mL
same,MIC,E.coli CSH2 (RK1),0.05 µg/mL
same,MIC,E.cloacae Nek 39; [7],3.12 µg/mL
same,MIC,C.freundii GN346; [8],25 µg/mL
same,MIC,S.aureus JS1; [9],25 µg/mL
same,MIC,S.marcescens No. 16-2; [10],25 µg/mL
same,MIC,E.coli NIHJ JC2; [11],0.05 µg/mL
same,MIC,K.oxytoca GN10650; [12],0.78 µg/mL
same,MIC,S.aureus 209P NIHJ-JC1; [13],1.56 µg/mL
same,MIC,Ps.aeruginosa AK 109; [14],12.5 µg/mL
same,MIC,S.epidermidis IAM12012; [15],0.39 µg/mL
same,MIC,M.morganii GN5407; [16],0.05 µg/mL
same,MIC,K.pneumoniae PCI-602; [17],< 0.006 µg/mL
same,MIC,C.freundii GN346/16; [18],0.1 µg/mL
same,MIC,E.coli CSH(RE45),0.2 µg/mL
same,MIC,S.aureus BB5703; [19],3.12 µg/mL
same,MIC,E.cloacae 963; [20],0.1 µg/mL
same,MIC,Ps.aeruginosa IFO3445,3.12 µg/mL
same,MIC,E.coli GN5482; [21],0.39 µg/mL
same,MIC,Ps.maltophilia GN 12873; [22],> 100 µg/mL
same,MIC,Ps.cepacia 23; [23],6.25 µg/mL
"C#CCON=C(C(=O)NC1C(=O)N2C(C(=O)[O-])=C(C[n+]3ccc4cc(O)c(O)cc4c3)CS[C@H]12)c1csc(N)n1 (stereo partly drawn) [Ex. 7, 7-[2-(2-aminothiazol-4-yl)-2-(2-propynyloxyimino)acetamido]-3-(6,7-dihydroxy-2-isoquinolio)methyl-3-cephem-4-carboxylate]",MIC,P.vulgaris No. 33; [1],0.05 µg/mL
same,MIC,A.calcoaceticus No. 4; [2],0.2 µg/mL
same,MIC,P.vulgaris HX-19; [3],< 0.006 µg/mL
same,MIC,Ps.aeruginosa AKR17,100 µg/mL
same,MIC,M.luteus ATCC9341; [4],0.2 µg/mL
same,MIC,K.pneumoniae No. 42; [5],< 0.006 µg/mL
same,MIC,S.marcescens IAM 1184; [6],< 0.006 µg/mL
same,MIC,E.coli CSH2 (RK1),< 0.006 µg/mL
same,MIC,E.cloacae Nek 39; [7],0.2 µg/mL
same,MIC,C.freundii GN346; [8],50 µg/mL
same,MIC,S.aureus JS1; [9],50 µg/mL
same,MIC,S.marcescens No. 16-2; [10],1.56 µg/mL
same,MIC,E.coli NIHJ JC2; [11],0.2 µg/mL
same,MIC,K.oxytoca GN10650; [12],1.56 µg/mL
same,MIC,S.aureus 209P NIHJ-JC1; [13],1.56 µg/mL
same,MIC,Ps.aeruginosa AK 109; [14],0.78 µg/mL
same,MIC,S.epidermidis IAM12012; [15],0.2 µg/mL
same,MIC,M.morganii GN5407; [16],0.05 µg/mL
same,MIC,K.pneumoniae PCI-602; [17],< 0.006 µg/mL
same,MIC,C.freundii GN346/16; [18],0.78 µg/mL
same,MIC,E.coli CSH(RE45),0.05 µg/mL
same,MIC,S.aureus BB5703; [19],6.25 µg/mL
same,MIC,E.cloacae 963; [20],0.0125 µg/mL
same,MIC,Ps.aeruginosa IFO3445,0.78 µg/mL
same,MIC,E.coli GN5482; [21],0.78 µg/mL
same,MIC,Ps.maltophilia GN 12873; [22],> 100 µg/mL
same,MIC,Ps.cepacia 23; [23],0.1 µg/mL
"CC(C)(O/N=C(\C(=O)N[C@@H]1C(=O)N2C(C(=O)[O-])=C(C[n+]3ccccc3)CS[C@H]12)c1csc(N)n1)C(=O)O [Ceftazidime, reference compound]",MIC,"P.vulgaris No. 33; NO.33, 16 h",0.05 µg/mL
same,MIC,"A.calcoaceticus No. 4; NO.4, 16 h",6.25 µg/mL
same,MIC,"P.vulgaris HX-19; HX19, 16 h",0.025 µg/mL
same,MIC,Ps.aeruginosa AKR17,> 100 µg/mL
same,MIC,"M.luteus ATCC9341; ATCC9341, 16 h",1.56 µg/mL
same,MIC,"K.pneumoniae No. 42; NO.42, 16 h",0.39 µg/mL
same,MIC,"S.marcescens IAM 1184; IAM1184, 16 h",0.025 µg/mL
same,MIC,E.coli CSH2 (RK1),0.1 µg/mL
same,MIC,"E.cloacae Nek 39; NEK39, 16 h",1.56 µg/mL
same,MIC,"C.freundii GN346; GN346, 16 h",25 µg/mL
same,MIC,"S.aureus JS1; JS1, 16 h",50 µg/mL
same,MIC,"S.marcescens No. 16-2; NO.162, 16 h",1.56 µg/mL
same,MIC,"E.coli NIHJ JC2; NIHJJC2, 16 h",0.2 µg/mL
same,MIC,"K.oxytoca GN10650; GN10650, 16 h",0.2 µg/mL
same,MIC,S.aureus 209P NIHJ-JC1; 16 h,6.25 µg/mL
same,MIC,"Ps.aeruginosa AK 109; AK109, 16 h",1.56 µg/mL
same,MIC,"S.epidermidis IAM12012; IAM12012, 16 h",3.12 µg/mL
same,MIC,"M.morganii GN5407; GN5407, 16 h",0.1 µg/mL
same,MIC,"K.pneumoniae PCI-602; PCI602, 16 h",0.125 µg/mL
same,MIC,"C.freundii GN346/16; GN346, 16 h",0.2 µg/mL
same,MIC,E.coli CSH(RE45),0.1 µg/mL
same,MIC,"S.aureus BB5703; BB5703, 16 h",25 µg/mL
same,MIC,"E.cloacae 963; Enterobacter cloacae, 963, 16 h",0.2 µg/mL
same,MIC,Ps.aeruginosa IFO3445,0.39 µg/mL
same,MIC,"E.coli GN5482; GN5482, 16 h",3.12 µg/mL
same,MIC,"Ps.maltophilia GN 12873; GN12873, 16 h",100 µg/mL
same,MIC,"Ps.cepacia 23; Burkholderia cepacia, 23, 16 h",1.56 µg/mL
